Measurements from patent US11466028B2, “Fused 1,4-oxazepines as BET protein degraders” (THE REGENTS OF THE UNIVERSITY OF MICHIGAN, priority 2016, dated 2022).
Where two headings read alike, the source gives them in different places.

What was measured:
MDA-MB-231 = experiment: CellTiter-Glo cell growth inhibition, MDA-MB-231; format: cell-based; details: Homo sapiens, MDA-MB-231, 96 h, 4 days, Table 4
Procedure, shortened: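 Cells seeded at 2,000 cells/well with serially diluted compound and incubated 4 days at 37 °C, 5% CO2. Viability read by CellTiter-Glo luminescence after 10-20 min at room temperature; IC50 calculated from the dose-response.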

MOLM-13 = experiment: CellTiter-Glo cell growth inhibition, MOLM-13; format: cell-based; details: Homo sapiens
Procedure, shortened: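 Leukemia cells seeded at 2,000 cells/well with serially diluted compounds, 4 days at 37 °C, 5% CO2. Viability by CellTiter-Glo luminescence after 10-20 min at RT. IC50 calculated from the curves.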

MDA-MB-157 = experiment: WST-8 cell growth inhibition assay, MDA-MB-157; format: cell-based; details: Homo sapiens, WST-8, Table 6
Method: (§1) Cpd. Nos. 7 and 18 were tested in various triple-negative breast cancer cell lines using the WST-8 cell growth assay.

MDA-MB-474 = experiment: WST-8 cell growth inhibition assay, MDA-MB-474; format: cell-based; details: WST-8, Table 6
Method: as §1

HBL100 = experiment: WST-8 cell growth inhibition assay, HBL100; format: cell-based; details: Homo sapiens, HBL-100; WST-8, Table 6
Method: as §1

BRD2 = molecular target: T1, BRD2 (Homo sapiens, UniProt P25440); experiment: Western blot, degradation of BRD2 in RS4;11 cells; format: cell-based; details: 2.5 h, as compared to Compound A, FIG. 1
T1 construct: endogenous in cells; host or cells: RS4;11 and MOLM-13 leukemia cells
Method: Cells were treated with compounds at the indicated concentrations for 2.5 h and 3 h, respectively, for RS4;11 (see FIG. 1) and MOLM-13 (see FIG. 2) cells. Compound A is ((S)-3-benzyl-6,9-dimethyl-2-((1-methyl-1H-pyrazol-4-yl)ethynyl)-4H,6H-thieno[2,3-e][1,2,4]triazolo[3,4-c][1,4]oxazepine). See Cpd. No. 85 of U.S. Appl. No. 62/295,271.
Collected cells were lysed in lysis buffer [1% CHAPS, 150 mM NaCl, 20 mM Tris-HCl, 1 mM. EDTA, 1 mM EGTA, and COMPLETE proteinase inhibitor (Roche)] for 30 minutes on ice. Protein concentrations were determined using the Bio-Rad Protein Assay Dye reagent. Whole tumor lysates (20 μg) were separated on a 4-20% Novex gels (Invitrogen). The separated proteins were transferred to a PVDF membrane (BIO-RAD) and the PVDF membrane was then blotted with 5% Blotting-Grade Blocker (BIO-RAD) for 1 hour at room temperature. The primary antibodies used were BRD4 rabbit polyclonal antibody [Bethyl Laboratories, Inc, cat #A301] and BRD2 antibody.
The BIO-RAD Clarity Western ECL Substrates (BIO-RAD) and HyBlot CL film (Denville) were used for signal development and detection using a SRX-101A tabletop processor (Konica Minolta).

RS4;11 xenograph tumors = experiment: RS4;11 xenograft model; format: in vivo, SCID mice; details: SCID mice, i.v. 5 mg/kg at days 1, 3, 5 per week for two weeks, FIG. 4
Method: Cpd. Nos. 7 and 11 were dissolved in 10% PCP [10% PEG400 (Sigma), 3% Cremophor (Sigma), and 87% PBS (Gibco)]. The pH of the drug solutions were checked before use and adjusted with 0.5N NaOH to be between pH 6.5 and 8.0 for IV (intravenous) administration.
RS4;11 cells were maintained at 37° C., 95% air, 5% carbon dioxide in Improved MEM (Richter's Mod.) supplemented with 10% Fetal Bovine Serum, 100 units/ml of penicillin and 100 units/ml of streptomycin (GIBCO™, Invitrogen Corp.) and passaged twice weekly.
Tumor cells for xenografts were harvested with Trypsin (0.05%)-EDTA (0.53 mM) (GIBCO™, Invitrogen Corp.), growth medium added and cells placed on ice. Cells were washed once with 1×PBS (GIBCO™, Invitrogen Corp.) and re-suspended in PBS. After washing in PBS, cells were re-suspended in an ice cold mixture of 1:1 PBS and Matrigel (BD Biosciences, Invitrogen Corp.) for a final Matrigel protein concentration of 5 mg/ml. Cells at 5×10^6 cells in 0.1 ml were injected subcutaneously (s.c.) into the flank region of each mouse using a 25 gauge needle. All tumors were inoculated into SCID mice (strain:236) C.B-17 SCID, Charles River.
The size of tumors growing in the mice was measured in two dimensions using calipers. Tumor volume (mm^3)═(A×B^2)/2 where A and B are the tumor length and width (in mm), respectively. During treatment, tumor volume and body weight were measured three times a week. After the treatment was stopped, tumor volume and body weight was measured at least once a week.
Tumors were not allowed to exceed 10% of the animals total body weight. If an animal had two or more tumors the total weight of all tumors were not allowed to exceed 10% of the animal's total body weight. At the end of the experimental period or when tumor size approached 10% of the total body weight, the animal was euthanized.
Before treatment began, tumors were allowed to grow to 100-200 mm^3 in volume, at which point the blood vessel supplies to the tumor should have been well established. Mice with tumors within acceptable size range were randomized into treatment groups of seven mice. Cpd. Nos. 7 and 11 were given i.v. at 10 mg/kg at days 1,3, and 5 per week for two weeks. The Control group received vehicle alone. Cpd. Nos. 16, 18, 22 and 48 were given i.v. at 5 mg/kg at days 1, 3, and 5 per week for two weeks. The Control group received vehicle alone.
Representative Compounds of the Disclosure were tested in the RS4;11 and other xenograph models using similar techniques. […] No. 22 in the MDA-MB-231 TNBC model.

T1 sequence (P25440 whole entry): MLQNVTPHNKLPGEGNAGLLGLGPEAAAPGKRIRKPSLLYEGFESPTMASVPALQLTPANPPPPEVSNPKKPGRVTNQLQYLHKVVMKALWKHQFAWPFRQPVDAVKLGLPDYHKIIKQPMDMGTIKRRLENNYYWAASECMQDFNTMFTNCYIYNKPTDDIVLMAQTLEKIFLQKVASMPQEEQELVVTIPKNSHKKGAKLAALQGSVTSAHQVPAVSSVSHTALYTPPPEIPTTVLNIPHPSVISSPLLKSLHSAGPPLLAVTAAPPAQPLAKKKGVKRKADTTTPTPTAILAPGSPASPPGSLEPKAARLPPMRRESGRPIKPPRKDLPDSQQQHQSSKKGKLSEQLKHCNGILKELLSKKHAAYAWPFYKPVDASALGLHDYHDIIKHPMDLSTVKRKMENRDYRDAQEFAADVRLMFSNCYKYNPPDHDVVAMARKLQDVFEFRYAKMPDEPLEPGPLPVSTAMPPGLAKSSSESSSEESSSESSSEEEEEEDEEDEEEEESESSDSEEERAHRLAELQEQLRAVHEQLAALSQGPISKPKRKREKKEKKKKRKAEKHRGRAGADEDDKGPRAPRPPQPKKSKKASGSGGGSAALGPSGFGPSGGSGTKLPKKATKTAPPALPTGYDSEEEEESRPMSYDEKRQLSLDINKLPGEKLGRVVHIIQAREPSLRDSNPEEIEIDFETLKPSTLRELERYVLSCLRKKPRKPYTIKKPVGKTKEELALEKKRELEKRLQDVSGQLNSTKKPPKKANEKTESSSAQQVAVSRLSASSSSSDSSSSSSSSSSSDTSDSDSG

SMILES: Cc1nnc2n1-c1sc(C#Cc3cnn(CCCC#Cc4cccc5c4CN(C4CCC(=O)NC4=O)C5=O)c3)c(Cc3ccccc3)c1CO[C@H]2C (stereo partly drawn) [Cpd. No. 18, 3-(4-(5-(4-(((S)-3-benzyl-6,9-dimethyl-4H,6H-thieno[2,3-e][1,2,4]triazolo[3,4-c][1,4]oxazepin-2-yl)ethynyl)-1H-pyrazol-1-yl)pent-1-yn-1-yl)-1-oxoisoindolin-2-yl) piperidine-2,6-dione]
- IC50 (MDA-MB-231): 1.5 nM
- IC50 (MOLM-13; MOLM-13, 96 h, 4 days, Table 4, read-out: MOLM-13 IC50): 1 nM
- IC50 (MOLM-13; MOLM-13, Table 5, read-out: IC50 (nM) MOLM13): 0.5 nM
- IC50 (MDA-MB-157): 0.06 ± 0.01 nM
- IC50 (MDA-MB-474): 0.31 ± 0.01 nM
- IC50 (HBL100): 0.84 ± 0.14 nM
- degradation of BRD2 protein (Western blot) (BRD2): induce degradation
- tumor regression in RS4;11 xenograph tumors (RS4;11 xenograph tumors): induce tumor regression
